In BindingDB's records for doi:10.1021/jm7012858 (Wyeth Research, 2008):

Target: Phosphatidylinositol 3-kinase regulatory subunit alpha/4,5-bisphosphate 3-kinase catalytic subunit alpha isoform (Homo sapiens, UniProt P42336)
Assay: PI3K Inhibition Assay
Protocol: Inhibition of PI3K enzyme activity is measured in a microtiter plate-based fluorescence polarization (FP) assay.

Sequence of Phosphatidylinositol 3-kinase regulatory subunit alpha/4,5-bisphosphate 3-kinase catalytic subunit alpha isoform (P27986 whole entry, canonical isoform): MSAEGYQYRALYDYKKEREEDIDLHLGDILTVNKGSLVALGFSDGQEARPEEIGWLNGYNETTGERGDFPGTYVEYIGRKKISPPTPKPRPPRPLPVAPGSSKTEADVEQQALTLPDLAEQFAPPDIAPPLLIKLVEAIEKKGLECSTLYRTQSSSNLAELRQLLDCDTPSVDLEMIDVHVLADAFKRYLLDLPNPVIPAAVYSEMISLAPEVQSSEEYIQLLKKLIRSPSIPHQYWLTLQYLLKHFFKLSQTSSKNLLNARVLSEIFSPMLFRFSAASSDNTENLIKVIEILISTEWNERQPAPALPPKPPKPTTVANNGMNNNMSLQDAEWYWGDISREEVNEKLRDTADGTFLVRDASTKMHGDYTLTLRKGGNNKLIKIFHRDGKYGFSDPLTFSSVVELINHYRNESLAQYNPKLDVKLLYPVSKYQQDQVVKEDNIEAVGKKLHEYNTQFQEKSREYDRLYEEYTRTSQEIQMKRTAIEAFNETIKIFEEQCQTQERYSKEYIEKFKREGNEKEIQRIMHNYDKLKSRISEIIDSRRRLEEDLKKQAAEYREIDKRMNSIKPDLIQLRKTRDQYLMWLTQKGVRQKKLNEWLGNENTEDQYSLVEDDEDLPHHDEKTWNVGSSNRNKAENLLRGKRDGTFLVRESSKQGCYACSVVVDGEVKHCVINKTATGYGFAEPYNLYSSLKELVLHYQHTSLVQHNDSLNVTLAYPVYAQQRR
Sequence of Phosphatidylinositol 3-kinase regulatory subunit alpha/4,5-bisphosphate 3-kinase catalytic subunit alpha isoform (P42336 whole entry, canonical isoform): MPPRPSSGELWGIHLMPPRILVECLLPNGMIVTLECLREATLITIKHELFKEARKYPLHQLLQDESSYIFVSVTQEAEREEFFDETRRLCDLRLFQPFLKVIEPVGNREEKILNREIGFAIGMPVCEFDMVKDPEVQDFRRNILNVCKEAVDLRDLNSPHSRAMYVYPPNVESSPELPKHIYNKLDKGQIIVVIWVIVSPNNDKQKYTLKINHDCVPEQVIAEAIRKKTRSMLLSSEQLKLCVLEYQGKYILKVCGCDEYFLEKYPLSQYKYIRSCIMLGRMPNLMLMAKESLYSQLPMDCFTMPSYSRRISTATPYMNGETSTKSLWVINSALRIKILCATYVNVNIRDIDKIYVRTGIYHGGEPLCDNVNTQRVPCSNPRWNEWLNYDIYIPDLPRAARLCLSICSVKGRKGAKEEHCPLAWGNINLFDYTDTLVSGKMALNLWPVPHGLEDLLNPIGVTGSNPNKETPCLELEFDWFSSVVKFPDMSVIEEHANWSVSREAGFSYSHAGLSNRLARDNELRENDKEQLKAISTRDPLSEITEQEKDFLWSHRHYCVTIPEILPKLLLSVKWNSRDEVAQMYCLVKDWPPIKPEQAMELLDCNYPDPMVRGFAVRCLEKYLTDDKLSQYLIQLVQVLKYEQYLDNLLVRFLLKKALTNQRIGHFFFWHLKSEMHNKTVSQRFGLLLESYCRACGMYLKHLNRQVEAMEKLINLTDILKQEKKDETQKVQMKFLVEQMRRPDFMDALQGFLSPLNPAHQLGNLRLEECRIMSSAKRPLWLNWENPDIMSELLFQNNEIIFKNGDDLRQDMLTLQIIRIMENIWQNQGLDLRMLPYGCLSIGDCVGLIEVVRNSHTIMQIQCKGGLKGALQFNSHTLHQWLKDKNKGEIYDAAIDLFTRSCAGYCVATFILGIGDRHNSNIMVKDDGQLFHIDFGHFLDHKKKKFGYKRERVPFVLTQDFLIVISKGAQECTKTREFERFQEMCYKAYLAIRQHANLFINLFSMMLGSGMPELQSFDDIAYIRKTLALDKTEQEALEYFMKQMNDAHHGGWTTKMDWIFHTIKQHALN

IC50 (pH 7.5, 22 °C)	IC50	Structure (SMILES)
635 nM	–	CCCCN(C)C=C1C(=O)O[C@H](COC)[C@]2(C)C3=C(C(=O)C(=O)C12)C1CC[C@H](O)[C@@]1(C)C[C@H]3OC(C)=O (stereo partly drawn) [(2R,3S,6Z,14S,15S,17R)-6-{[butyl(methyl)amino]methylidene}-8,14-dihydroxy-3-(methoxymethyl)-2,15-dimethyl-5,9-dioxo-4-oxatetracyclo[8.7.0.0^{2,7}.0^{11,15}]heptadeca-1(10),7-dien-17-yl acetate]
1110 nM	–	COC[C@H]1OC(=O)C(=CN(CCO)C(C)(C)C)C2C(=O)C(=O)C3=C([C@H](OC(C)=O)C[C@@]4(C)C3CC[C@@H]4O)[C@]21C (stereo partly drawn) [(2R,3S,6Z,14S,15S,17R)-6-{[tert-butyl(2-hydroxyethyl)amino]methylidene}-8,14-dihydroxy-3-(methoxymethyl)-2,15-dimethyl-5,9-dioxo-4-oxatetracyclo[8.7.0.0^{2,7}.0^{11,15}]heptadeca-1(10),7-dien-17-yl acetate]
–	12 nM	CCN(C=C1C(=O)O[C@H](COC)[C@]2(C)C3=C(C(=O)C(=O)C12)C1CC[C@H](O)[C@@]1(C)C[C@H]3OC(C)=O)CCCN(C)C (stereo partly drawn) [(2R,3S,6E,14S,15S,17R)-6-({[3-(dimethylamino)propyl](ethyl)amino}methylidene)-8,14-dihydroxy-3-(methoxymethyl)-2,15-dimethyl-5,9-dioxo-4-oxatetracyclo[8.7.0.0^{2,7}.0^{11,15}]heptadeca-1(10),7-dien-17-yl acetate]
–	918 nM	COC[C@H]1OC(=O)C(=CN(CCO)CCO)C2C(=O)C(=O)C3=C([C@H](OC(C)=O)C[C@@]4(C)C3CC[C@@H]4O)[C@]21C (stereo partly drawn) [(2R,3S,6E,14S,15S,17R)-6-{[bis(2-hydroxyethyl)amino]methylidene}-8,14-dihydroxy-3-(methoxymethyl)-2,15-dimethyl-5,9-dioxo-4-oxatetracyclo[8.7.0.0^{2,7}.0^{11,15}]heptadeca-1(10),7-dien-17-yl acetate]
> 10000 nM	–	COC[C@H]1OC(=O)C(=CNCCCN(C)C)C2C(=O)C(=O)C3=C([C@H](OC(C)=O)C[C@@]4(C)C3CC[C@@H]4O)[C@]21C (stereo partly drawn) [(2R,3S,6Z,14S,15S,17R)-6-({[3-(dimethylamino)propyl]amino}methylidene)-8,14-dihydroxy-3-(methoxymethyl)-2,15-dimethyl-5,9-dioxo-4-oxatetracyclo[8.7.0.0^{2,7}.0^{11,15}]heptadeca-1(10),7-dien-17-yl acetate]

Further lines, the compound ahead of its results:

Structure (SMILES)	IC50 (pH 7.5, 22 °C)	IC50
COC[C@H]1OC(=O)C(=CN(CCC#N)Cc2ccccc2)C2C(=O)C(=O)C3=C([C@H](OC(C)=O)C[C@@]4(C)C3CC[C@@H]4O)[C@]21C (stereo partly drawn) [(2R,3S,6E,14S,15S,17R)-6-{[benzyl(2-cyanoethyl)amino]methylidene}-8,14-dihydroxy-3-(methoxymethyl)-2,15-dimethyl-5,9-dioxo-4-oxatetracyclo[8.7.0.0^{2,7}.0^{11,15}]heptadeca-1(10),7-dien-17-yl acetate]	–	444 nM
COC[C@H]1OC(=O)C(=CN2CCN(CCCN(C)C)CC2)C2C(=O)C(=O)C3=C([C@H](OC(C)=O)C[C@@]4(C)C3CC[C@@H]4O)[C@]21C (stereo partly drawn) [(2R,3S,6E,14S,15S,17R)-6-({4-[3-(dimethylamino)propyl]piperazin-1-yl}methylidene)-8,14-dihydroxy-3-(methoxymethyl)-2,15-dimethyl-5,9-dioxo-4-oxatetracyclo[8.7.0.0^{2,7}.0^{11,15}]heptadeca-1(10),7-dien-17-yl acetate]	–	38 nM
COC[C@H]1OC(=O)C(=CN2CCN(c3ccccc3)CC2)C2C(=O)C(=O)C3=C([C@H](OC(C)=O)C[C@@]4(C)C3CC[C@@H]4O)[C@]21C (stereo partly drawn) [(2R,3S,6E,14S,15S,17R)-8,14-dihydroxy-3-(methoxymethyl)-2,15-dimethyl-5,9-dioxo-6-[(4-phenylpiperazin-1-yl)methylidene]-4-oxatetracyclo[8.7.0.0^{2,7}.0^{11,15}]heptadeca-1(10),7-dien-17-yl acetate]	–	56 nM
COC[C@H]1OC(=O)C(=CN(C)CCCN(C)C)C2C(=O)C(=O)C3=C([C@H](O)C[C@@]4(C)C3CC[C@@H]4O)[C@]21C (stereo partly drawn) [(2R,3S,6Z,14S,15S,17R)-6-({[3-(dimethylamino)propyl](methyl)amino}methylidene)-8,14,17-trihydroxy-3-(methoxymethyl)-2,15-dimethyl-4-oxatetracyclo[8.7.0.0^{2,7}.0^{11,15}]heptadeca-1(10),7-diene-5,9-dione]	638 nM	–
COC[C@H]1OC(=O)C(=CN2CCN(C3CCN(C)CC3)CC2)C2C(=O)C(=O)C3=C([C@H](OC(C)=O)C[C@@]4(C)C3CC[C@@H]4O)[C@]21C (stereo partly drawn) [(2R,3S,6E,14S,15S,17R)-8,14-dihydroxy-3-(methoxymethyl)-2,15-dimethyl-6-{[4-(1-methylpiperidin-4-yl)piperazin-1-yl]methylidene}-5,9-dioxo-4-oxatetracyclo[8.7.0.0^{2,7}.0^{11,15}]heptadeca-1(10),7-dien-17-yl acetate]	–	91 nM
COC[C@H]1OC(=O)C(=CN(C)N2CCC(C)C2)C2C(=O)C(=O)C3=C([C@H](OC(C)=O)C[C@@]4(C)C3CC[C@@H]4O)[C@]21C (stereo partly drawn) [(2R,3S,6E,14S,15S,17R)-8,14-dihydroxy-3-(methoxymethyl)-2,15-dimethyl-6-{[methyl(3-methylpyrrolidin-1-yl)amino]methylidene}-5,9-dioxo-4-oxatetracyclo[8.7.0.0^{2,7}.0^{11,15}]heptadeca-1(10),7-dien-17-yl acetate]	–	127 nM
COC[C@H]1OC(=O)C(=CN2CCN(CCN3CCOCC3)CC2)C2C(=O)C(=O)C3=C([C@H](OC(C)=O)C[C@@]4(C)C3CC[C@@H]4O)[C@]21C (stereo partly drawn) [(2R,3S,6E,14S,15S,17R)-8,14-dihydroxy-3-(methoxymethyl)-2,15-dimethyl-6-({4-[2-(morpholin-4-yl)ethyl]piperazin-1-yl}methylidene)-5,9-dioxo-4-oxatetracyclo[8.7.0.0^{2,7}.0^{11,15}]heptadeca-1(10),7-dien-17-yl acetate]	–	78 nM
COC[C@H]1OC(=O)C(=CN(CCN(C)C)Cc2ccccc2)C2C(=O)C(=O)C3=C([C@H](OC(C)=O)C[C@@]4(C)C3CC[C@@H]4O)[C@]21C (stereo partly drawn) [(2R,3S,6Z,14S,15S,17R)-6-({benzyl[2-(dimethylamino)ethyl]amino}methylidene)-8,14-dihydroxy-3-(methoxymethyl)-2,15-dimethyl-5,9-dioxo-4-oxatetracyclo[8.7.0.0^{2,7}.0^{11,15}]heptadeca-1(10),7-dien-17-yl acetate]	66 nM	–
CCN(C=C1C(=O)O[C@H](COC)[C@]2(C)C3=C(C(=O)C(=O)C12)C1CC[C@H](O)[C@@]1(C)C[C@H]3O)CC (stereo partly drawn) [(2R,3S,6Z,14S,15S,17R)-6-[(diethylamino)methylidene]-8,14,17-trihydroxy-3-(methoxymethyl)-2,15-dimethyl-4-oxatetracyclo[8.7.0.0^{2,7}.0^{11,15}]heptadeca-1(10),7-diene-5,9-dione]	7850 nM	–
COC[C@H]1OC(=O)C(=CN2CCC(C(=O)O)CC2)C2C(=O)C(=O)C3=C([C@H](OC(C)=O)C[C@@]4(C)C3CC[C@@H]4O)[C@]21C (stereo partly drawn) [1-{[(2R,3S,6E,14S,15S,17R)-17-(acetyloxy)-8,14-dihydroxy-3-(methoxymethyl)-2,15-dimethyl-5,9-dioxo-4-oxatetracyclo[8.7.0.0^{2,7}.0^{11,15}]heptadeca-1(10),7-dien-6-ylidene]methyl}piperidine-4-carboxylic acid]	–	33 nM
